Source: US9101638B2, “Boronic acid derivatives and therapeutic uses thereof” (Rempex Pharmaceuticals, Inc., priority 2013, dated 2015)
Where two headings read alike, the source gives them in different places.

Key:
[1] = molecular target: SHV-12 (Klebsiella pneumoniae, UniProt P0AD64, E235K/G234S/L31Q); experiment: Inhibition of nitrocefin cleavage by purified SHV-12; assay type: biochemical; conditions: nitrocefin reporter substrate, purified enzyme; read-out: Ki (SHV-12, NCF)
Experimental: (§1) Purified enzymes were mixed with various concentrations of inhibitors in reaction buffer and incubated for 10 min at room temperature. Nitrocefin was added and substrate cleavage profiles were recorded at 490 nm every 10 sec for 10 min.

[2] = system: KP1004 (K-2); experiment: Potentiation of aztreonam, strain KP1004; assay type: cell-based; conditions: minimum BLI concentration inhibiting growth with 4 μg/mL aztreonam
[3] = system: EC1010 (CMY-6); assay type: cell-based
[4] = system: ec308 (SHV-5); experiment: Potentiation of aztreonam, strain ec308; assay type: cell-based; conditions: minimum BLI concentration inhibiting growth with 4 μg/mL aztreonam
[5] = system: KP1009 (CTX-M-15); experiment: Potentiation of tigemonam, strain KP1009; conditions: minimum BLI concentration inhibiting growth with 4 μg/mL tigemonam
[6] = system: ec308 (SHV-5); experiment: Potentiation of tigemonam, strain ec308; assay type: cell-based; conditions: minimum BLI concentration inhibiting growth with 4 μg/mL tigemonam
[7] = system: ec302 (TEM-10); experiment: Potentiation of tigemonam, strain ec302; assay type: cell-based
[8] = system: ec302 (TEM-10); experiment: Potentiation of aztreonam, strain ec302; assay type: cell-based
[9] = system: ECL1002; experiment: Potentiation of aztreonam, strain ECL1002; assay type: cell-based; conditions: minimum BLI concentration inhibiting growth with 4 μg/mL aztreonam
[10] = system: KP1009 (CTX-M-15); experiment: Potentiation of aztreonam, strain KP1009; assay type: cell-based
[11] = system: KP1005 (CTX-M-14); experiment: Potentiation of aztreonam, strain KP1005; assay type: cell-based
[12] = system: PAM1032/KPC-2; experiment: Biapenem potentiation in PAM1032/KPC-2 (MexAB-OprM overexpressed); assay type: cell-based, Pseudomonas aeruginosa; conditions: BLI potency to decrease biapenem MIC 64-fold, 32 to 0.5 μg/ml; efflux proficient strain
Experimental: (§2) Efflux of BLIs from Pseudomonas aeruginosa by the MexAB-OprM efflux pump was also evaluated. […] Due to expression of KPC-2 both strains became resistant to biapenem. […] Potency of BLIs to potentiate biapenem in these strains was determined. […] The ratio of MPC64 values for each BLI in PAM1032/KPC-2 (efflux proficient) and PAM1154/KPC-2 (efflux deficient) was determined to generate the Efflux Index (EI).

[13] = system: PAM1154/KPC-2; experiment: Biapenem potentiation in PAM1154/KPC-2 (MexAB-OprM lacking); assay type: cell-based, Pseudomonas aeruginosa
Experimental: as §2

[14] = system: EC1010 (CMY-6); experiment: Potentiation of aztreonam, strain EC1010; assay type: cell-based
[15] = molecular target: KPC-2 (Klebsiella pneumoniae, UniProt Q9F663); experiment: Inhibition of nitrocefin cleavage by purified KPC-2; assay type: biochemical; conditions: nitrocefin reporter substrate, purified enzyme; read-out: Ki (KPC-2, NCF)
Experimental: as §1

[16] = minimum BLI concentration inhibiting growth with 4 μg/mL aztreonam

Chain of SHV-12 (P0AD64 22-286 L31Q/G234S/E235K): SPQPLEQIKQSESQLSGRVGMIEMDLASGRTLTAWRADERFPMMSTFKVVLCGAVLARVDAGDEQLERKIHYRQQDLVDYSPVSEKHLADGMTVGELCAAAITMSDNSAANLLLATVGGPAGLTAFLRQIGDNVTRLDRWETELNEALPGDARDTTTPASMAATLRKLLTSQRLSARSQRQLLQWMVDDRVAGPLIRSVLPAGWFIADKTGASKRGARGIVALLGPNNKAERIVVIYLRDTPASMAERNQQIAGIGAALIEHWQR
Chain of KPC-2 (Q9F663 25-293, looked up, species assumed): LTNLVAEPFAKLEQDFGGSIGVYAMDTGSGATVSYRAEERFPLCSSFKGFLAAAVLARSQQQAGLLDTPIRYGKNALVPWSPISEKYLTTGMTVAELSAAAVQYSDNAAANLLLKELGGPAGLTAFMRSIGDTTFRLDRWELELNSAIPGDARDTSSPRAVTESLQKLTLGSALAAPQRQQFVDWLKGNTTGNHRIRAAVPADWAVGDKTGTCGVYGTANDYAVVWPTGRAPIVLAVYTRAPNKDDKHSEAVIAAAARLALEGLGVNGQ

SMILES | Ki [1] | AZT MPC4 K-2 KP1004 [2] | AZT MPC4 SHV-5 ec308 [4] | TIG MPC4 CTX-M-15 KP1009 [5] | TIG MPC4 SHV-5 ec308 [6] | TIG MPC4 TEM-10 ec302 [7] | AZT MPC4 ECL1002 [9] | PAM1032/KPC-2 Biapenem MPC64 [12] | TIG MPC4 CMY-6 EC1010 [3] | AZT MPC4 TEM-10 ec302 [8] | AZT MPC4 CTX-M-15 KP1009 [10] | AZT MPC4 CTX-M-14 KP1005 [11] | AZT MPC4 CMY-6 EC1010 [14] | other results
O=C(CSC(F)(F)F)N[C@H]1Cc2cccc(C(=O)O)c2OB1O [Compound 1, (R)-2-hydroxy-3-(2-(trifluoromethylthio)acetamido)-3,4-dihydro-2H-benzo[e][1,2]oxaborinine-8-carboxylic acid] | < 1 nM | Y (Y = MIC of 1 μg/mL to 10 μg/mL) | X (X = MIC of less than 1 μg/mL) | Y (Y = MIC of 1 μg/mL to 10 μg/mL) | X (X = MIC of less than 1 μg/mL) | Z (key: X = MIC of less than 1 μg/mL; Y = MIC of 1 μg/mL to 10 μg/mL; Z = MIC of greater than 10 μg/mL) | Y (Y = MIC of 1 μg/mL to 10 μg/mL) | Z (Z Greater than 40) |  |  |  |  |  | TIG MPC4 CMY-6 EC1010 ([3]; minimum BLI concentration inhibiting growth with 4 μg/mL tigemonam): X (X = MIC of less than 1 μg/mL); AZT MPC4 TEM-10 ec302 [8, 16]: Y (Y = MIC of 1 μg/mL to 10 μg/mL); AZT MPC4 CTX-M-15 KP1009 [10, 16]: Y (Y = MIC of 1 μg/mL to 10 μg/mL); AZT MPC4 CTX-M-14 KP1005 [11, 16]: Y (Y = MIC of 1 μg/mL to 10 μg/mL); PAM1154/KPC-2 Biapenem MPC64 [13]: X (key: X = Less than 10; Y = 10 to 40; Z Greater than 40); AZT MPC4 CMY-6 EC1010 [14, 16]: Y (Y = MIC of 1 μg/mL to 10 μg/mL)
Cn1nnnc1SCC(=O)N[C@H]1Cc2cccc(C(=O)O)c2OB1O [Compound 2, (R)-2-hydroxy-3-(2-(1-methyl-1H-tetrazol-5-ylthio)acetamido)-3,4-dihydro-2H-benzo[e][1,2]oxaborinine-8-carboxylic acid] | < 1 nM | Y (Y = MIC of 1 μg/mL to 10 μg/mL) | X (X = MIC of less than 1 μg/mL) | Y (Y = MIC of 1 μg/mL to 10 μg/mL) | X (X = MIC of less than 1 μg/mL) | Y (key: X = MIC of less than 1 μg/mL; Y = MIC of 1 μg/mL to 10 μg/mL; Z = MIC of greater than 10 μg/mL) | Y (Y = MIC of 1 μg/mL to 10 μg/mL) | Z (Z Greater than 40) | X (key: X = MIC of less than 1 μg/mL; Y = MIC of 1 μg/mL to 10 μg/mL; Z = MIC of greater than 10 μg/mL) | Y (key: X = MIC of less than 1 μg/mL; Y = MIC of 1 μg/mL to 10 μg/mL; Z = MIC of greater than 10 μg/mL) | Y (key: X = MIC of less than 1 μg/mL; Y = MIC of 1 μg/mL to 10 μg/mL; Z = MIC of greater than 10 μg/mL) | X (key: X = MIC of less than 1 μg/mL; Y = MIC of 1 μg/mL to 10 μg/mL; Z = MIC of greater than 10 μg/mL) | Y (key: X = MIC of less than 1 μg/mL; Y = MIC of 1 μg/mL to 10 μg/mL; Z = MIC of greater than 10 μg/mL) | PAM11154/KPC-2 Biapenem MPC64 ([13]; BLI potency to decrease biapenem MIC 64-fold, 32 to 0.5 μg/ml, efflux deficient strain): Y (Y = 10 to 40)
CN(C)C(=O)C(=O)N[C@H]1Cc2cccc(C(=O)O)c2OB1O [Compound 9, (R)-3-(2-(dimethylamino)-2-oxoacetamido)-2-hydroxy-3,4-dihydro-2H-benzo[e][1,2]oxaborinine-8-carboxylic acid] |  | Y (Y = MIC of 1 μg/mL to 10 μg/mL) | X (X = MIC of less than 1 μg/mL) | Y (Y = MIC of 1 μg/mL to 10 μg/mL) | Y (Y = MIC of 1 μg/mL to 10 μg/mL) | Z (key: X = MIC of less than 1 μg/mL; Y = MIC of 1 μg/mL to 10 μg/mL; Z = MIC of greater than 10 μg/mL) | Y (Y = MIC of 1 μg/mL to 10 μg/mL) |  | Y (key: X = MIC of less than 1 μg/mL; Y = MIC of 1 μg/mL to 10 μg/mL; Z = MIC of greater than 10 μg/mL) | Y (key: X = MIC of less than 1 μg/mL; Y = MIC of 1 μg/mL to 10 μg/mL; Z = MIC of greater than 10 μg/mL) | Y (key: X = MIC of less than 1 μg/mL; Y = MIC of 1 μg/mL to 10 μg/mL; Z = MIC of greater than 10 μg/mL) | Y (key: X = MIC of less than 1 μg/mL; Y = MIC of 1 μg/mL to 10 μg/mL; Z = MIC of greater than 10 μg/mL) | Y (key: X = MIC of less than 1 μg/mL; Y = MIC of 1 μg/mL to 10 μg/mL; Z = MIC of greater than 10 μg/mL) | Ki [15]: > 10 nM
